Measured values published in US20220281848A1, “PYRAZOLE-SUBSTITUTED PYRROLIDINONES AS HERBICIDES” (FMC Corporation, priority 2019, published 2022).

Legend:
Format in all cases: in vivo
Conditions in all cases: after 13 d
corn (Zea mays, ZEAMX) [1] = assay: Test A pre-emergence, corn
Method: (§1) Seeds of corn (Zea mays, ZEAMX), giant foxtail (Setaria faberi, SETFA), barnyardgrass (Echinochloa crus-galli, ECHCG), ivy-leaved morning glory (Ipomoea hederacea, IPOHE), redroot pigweed (Amaranthus retroflexus, AMARE) and velvetleaf (Abutilon theophrasti, ABUTH) were sown in standard soil in pots. After cultivation for one day under controlled conditions in a glasshouse (at 24/16° C., day/night; 14 h light; 65% humidity), the plants were sprayed with an aqueous spray solution derived from the formulation of the technical active ingredient in acetone/water (50:50) solution containing 0.5% Tween 20 (polyoxyethylene sorbitan monolaurate, CAS RN 9005-64-5) to give a final dose of 15.625, 62.5 or 250 g/ha of test compound.
(§2) The test plants were then grown under controlled conditions in a glasshouse (at 24/16° C., day/night; 14 h light; 65% humidity) and watered twice daily. After 13 d the test was evaluated (100=total damage to plant; 0=no damage to plant).

[2] = test system: giant foxtail (Setaria faberi, SETFA); assay: Test A pre-emergence, giant foxtail
Method: as §1, §2

[3] = test system: barnyardgrass (Echinochloa crus-galli, ECHCG); assay: Test A pre-emergence, barnyardgrass
Method: as §1, §2

[4] = test system: ivy-leaved morning glory (Ipomoea hederacea, IPOHE); assay: Test A pre-emergence, ivy-leaved morning glory
Method: as §1, §2

[5] = test system: redroot pigweed (Amaranthus retroflexus, AMARE); assay: Test A pre-emergence, redroot pigweed
Method: as §1, §2

[6] = test system: velvetleaf (Abutilon theophrasti, ABUTH); assay: Test A pre-emergence, velvetleaf
Method: as §1, §2

corn (Zea mays, ZEAMX) [7] = assay: Test A post-emergence, corn
Method: as §1, with “IPOHE)),” for “IPOHE),”, “8 d” for “one day”
(§3) The test plants were then grown on under controlled conditions in a glasshouse (at 24/16° C., day/night; 14 h light; 65% humidity) and watered twice daily. After 13 d the test was evaluated (100=total damage to plant; 0=no damage to plant).

[8] = test system: giant foxtail (Setaria faberi, SETFA); assay: Test A post-emergence, giant foxtail
Method: as §1, with “IPOHE)),” for “IPOHE),”, “8 d” for “one day”
as §3

[9] = test system: barnyardgrass (Echinochloa crus-galli, ECHCG); assay: Test A post-emergence, barnyardgrass
Method: as §1, with “IPOHE)),” for “IPOHE),”, “8 d” for “one day”
as §3

[10] = test system: ivy-leaved morning glory (Ipomoea hederacea, IPOHE); assay: Test A post-emergence, ivy-leaved morning glory
Method: as §1, with “IPOHE)),” for “IPOHE),”, “8 d” for “one day”
as §3

[11] = test system: redroot pigweed (Amaranthus retroflexus, AMARE); assay: Test A post-emergence, redroot pigweed
Method: as §1, with “IPOHE)),” for “IPOHE),”, “8 d” for “one day”
as §3

[12] = test system: velvetleaf (Abutilon theophrasti, ABUTH); assay: Test A post-emergence, velvetleaf
Method: as §1, with “IPOHE)),” for “IPOHE),”, “8 d” for “one day”
as §3

Row | SMILES | damage to plant (100=total damage; 0=no damage) ZEAMX (corn (Zea mays, ZEAMX) [1]; Pre-Emergence at 62.5 g/ha) | damage to plant (100=total damage; 0=no damage) ZEAMX (corn (Zea mays, ZEAMX) [1]; Pre-Emergence at 250 g/ha) | damage to plant (100=total damage; 0=no damage) SETFA ([2]; Pre-Emergence at 62.5 g/ha) | damage to plant (100=total damage; 0=no damage) SETFA ([2]; Pre-Emergence at 250 g/ha) | damage to plant (100=total damage; 0=no damage) ECHCG ([3]; Pre-Emergence at 62.5 g/ha) | damage to plant (100=total damage; 0=no damage) ECHCG ([3]; Pre-Emergence at 250 g/ha) | damage to plant (100=total damage; 0=no damage) IPOHE ([4]; Pre-Emergence at 62.5 g/ha) | damage to plant (100=total damage; 0=no damage) IPOHE ([4]; Pre-Emergence at 250 g/ha) | damage to plant (100=total damage; 0=no damage) AMARE ([5]; Pre-Emergence at 62.5 g/ha) | damage to plant (100=total damage; 0=no damage) AMARE ([5]; Pre-Emergence at 250 g/ha) | damage to plant (100=total damage; 0=no damage) ABUTH ([6]; Pre-Emergence at 62.5 g/ha) | damage to plant (100=total damage; 0=no damage) ABUTH ([6]; Pre-Emergence at 250 g/ha) | damage to plant (100=total damage; 0=no damage) ZEAMX (corn (Zea mays, ZEAMX) [7]; Post-Emergence at 15.625 g/ha) | damage to plant (100=total damage; 0=no damage) ZEAMX (corn (Zea mays, ZEAMX) [7]; Post-Emergence at 62.5 g/ha) | damage to plant (100=total damage; 0=no damage) ZEAMX (corn (Zea mays, ZEAMX) [7]; Post-Emergence at 250 g/ha) | damage to plant (100=total damage; 0=no damage) SETFA ([8]; Post-Emergence at 15.625 g/ha) | damage to plant (100=total damage; 0=no damage) SETFA ([8]; Post-Emergence at 62.5 g/ha) | damage to plant (100=total damage; 0=no damage) SETFA ([8]; Post-Emergence at 250 g/ha) | damage to plant (100=total damage; 0=no damage) ECHCG ([9]; Post-Emergence at 15.625 g/ha) | damage to plant (100=total damage; 0=no damage) ECHCG ([9]; Post-Emergence at 62.5 g/ha) | further results
1 | CN1CC(c2cc(C(F)(F)F)n(C)n2)C(C(=O)Nc2cccc(F)c2OC(F)(F)F)C1=O (racemic) [Compound 16] | 0 | 30 | 80 | 90 | 80 | 90 | 0 | 50 | 0 | 0 | 0 | 0 | 0 | 0 | 0 | 0 | 60 | 70 | 0 | 50 | damage to plant (100=total damage; 0=no damage) ZEAMX (corn (Zea mays, ZEAMX) [1]; Pre-Emergence at 15.625 g/ha): 0; damage to plant (100=total damage; 0=no damage) SETFA ([2]; Pre-Emergence at 15.625 g/ha): 0; damage to plant (100=total damage; 0=no damage) ECHCG ([3]; Pre-Emergence at 15.625 g/ha): 0; damage to plant (100=total damage; 0=no damage) IPOHE ([4]; Pre-Emergence at 15.625 g/ha): 0; damage to plant (100=total damage; 0=no damage) AMARE ([5]; Pre-Emergence at 15.625 g/ha): 0; damage to plant (100=total damage; 0=no damage) ABUTH ([6]; Pre-Emergence at 15.625 g/ha): 0; damage to plant (100=total damage; 0=no damage) ECHCG ([9]; Post-Emergence at 250 g/ha): 70; damage to plant (100=total damage; 0=no damage) IPOHE ([10]; Post-Emergence at 15.625 g/ha): 0; damage to plant (100=total damage; 0=no damage) IPOHE ([10]; Post-Emergence at 62.5 g/ha): 0; damage to plant (100=total damage; 0=no damage) IPOHE ([10]; Post-Emergence at 250 g/ha): 0; damage to plant (100=total damage; 0=no damage) AMARE ([11]; Post-Emergence at 15.625 g/ha): 0; damage to plant (100=total damage; 0=no damage) AMARE ([11]; Post-Emergence at 62.5 g/ha): 0; damage to plant (100=total damage; 0=no damage) AMARE ([11]; Post-Emergence at 250 g/ha): 0; damage to plant (100=total damage; 0=no damage) ABUTH ([12]; Post-Emergence at 15.625 g/ha): 0; damage to plant (100=total damage; 0=no damage) ABUTH ([12]; Post-Emergence at 62.5 g/ha): 0; damage to plant (100=total damage; 0=no damage) ABUTH ([12]; Post-Emergence at 250 g/ha): 0
2 | CCn1nc(C2CN(C)C(=O)C2C(=O)Nc2cccc(F)c2F)c2cccc(F)c21 (stereo not drawn) [Compound 15] | 0 | 0 | 0 | 0 | 0 | 0 | 0 | 0 | 0 | 0 | 0 | 0 | 0 | 0 | 0 | 0 | 0 | 0 | 0 | 0 | damage to plant (100=total damage; 0=no damage) ECHCG ([9]; Post-Emergence at 250 g/ha): 0; damage to plant (100=total damage; 0=no damage) IPOHE ([10]; Post-Emergence at 15.625 g/ha): 0; damage to plant (100=total damage; 0=no damage) IPOHE ([10]; Post-Emergence at 62.5 g/ha): 0; damage to plant (100=total damage; 0=no damage) IPOHE ([10]; Post-Emergence at 250 g/ha): 0; damage to plant (100=total damage; 0=no damage) AMARE ([11]; Post-Emergence at 15.625 g/ha): 0; damage to plant (100=total damage; 0=no damage) AMARE ([11]; Post-Emergence at 62.5 g/ha): 0; damage to plant (100=total damage; 0=no damage) AMARE ([11]; Post-Emergence at 250 g/ha): 0; damage to plant (100=total damage; 0=no damage) ABUTH ([12]; Post-Emergence at 15.625 g/ha): 0; damage to plant (100=total damage; 0=no damage) ABUTH ([12]; Post-Emergence at 62.5 g/ha): 0; damage to plant (100=total damage; 0=no damage) ABUTH ([12]; Post-Emergence at 250 g/ha): 0
